Measurements reported in patent US20200407398A1, “Short Proline-Rich Lipopeptide Potentiates Minocycline and Rifampicin Against Multidrug-and Extensively Drug-Resistant Pseudomonas Aeruginosa” (priority 2018, published 2020).
Peptide text beside a SMILES is read from it. * marks the point of attachment. Palmitoyl = CCCCCCCCCCCCCCCC(=O)*

What was measured:
[1] = test system: A. baumannii CAN-ICU 63169; format: cell-based
Experimental: (§1) The synthesized SPRLPs were evaluated for their antibacterial potency against a panel of Gram-positive and Gram-negative bacteria (Tables 2 & 3). Some of the included pathogens were collected from patients visiting or admitted to participating Canadian hospitals through the CAN-ICU (27) and CANWARD (28) national surveillance studies. Antibacterial activity was assessed using minimum inhibitory concentration (MIC) against various clinical pathogens.
(§2) Isolates used in this study were either obtained from the American Type Culture Collection (ATCC), the Canadian National Intensive Care Unit (CAN-ICU) surveillance study (27) or the Canadian Ward Surveillance (CANWARD) study (28). Clinical isolates belonging to the CAN-ICU and CANWARD studies were recovered from patients suffering a presumed infectious disease entering or admitted in a participating medical center across Canada during the time of study. MDR P. aeruginosa strains in this study refer to those that are resistant to aminoglycosides, fluoroquinolones, cephalosporins, and carbapenems while XDR strains are those that are resistant to aminoglycosides, fluoroquinolones, cephalosporins, carbapenems, aztreonam and penicillin+β-lactamase inhibitor combination (39, 40).
(§3) Microbroth dilution susceptibility test following the Clinical and Laboratory Standards Institute (CLSI) guidelines (32) was performed to assess the in vitro antibacterial activity of SPRLPs. Overnight grown bacterial cultures were diluted in saline to achieve a 0.5 McFarland turbidity, followed by 1:50 dilution in Mueller-Hinton broth (MHB) for inoculation to a final concentration of 5×10^5 colony forming units/mL. The assay was done on a 96-well plate to which the agents of interest were 2-fold serially diluted in MHB and incubated with equal volumes of inoculum at 37° C. for 18 hours. MIC was determined as the lowest concentration to inhibit visible bacterial growth in form of turbidity, which was confirmed using EMax Plus microplate reader (Molecular Devices, USA) at a wavelength of 590 nm. The well containing MHB broth with or without bacterial cells was used as positive or negative control, respectively.

E. coli ATCC 25922 = format: cell-based
Experimental: as §1, §2, §3

[2] = test system: E. coli CAN-ICU 61714 (gentamicin-resistant); format: cell-based
Experimental: as §1, §2, §3

[3] = test system: E. coli CAN-ICU 63074 (amikacin-intermediate resistant); format: cell-based
Experimental: as §1, §2, §3

[4] = test system: E. coli CANWARD-2011 97615 (gentamicin-, tobramycin-, ciprofloxacin-resistant) aac(3′)iia; format: cell-based
Experimental: as §1, §2, §3

E. faecalis ATCC 29212 = format: cell-based
Experimental: as §1, §2, §3

E. faecium ATCC 27270 = format: cell-based
Experimental: as §1, §2, §3

K. pneumoniae ATCC 13883 = format: cell-based
Experimental: as §1, §2, §3

P. aeruginosa ATCC 27853 = format: cell-based
Experimental: as §1, §2, §3

[5] = test system: P. aeruginosa CAN-ICU 62308 (gentamicin-resistant); format: cell-based
Experimental: as §1, §2, §3

[6] = test system: P. aeruginosa CANWARD-2011 96846 (gentamicin-, tobramycin-resistant); format: cell-based
Experimental: as §1, §2, §3

[7] = test system: P. aeruginosa wild-type PAO1; format: cell-based
Experimental: as §1, §2, §3

S. aureus ATCC 29213 = format: cell-based
Experimental: as §1, §2, §3

[8] = test system: S. maltophilia CAN-ICU 62584; format: cell-based
Experimental: as §1, §2, §3

[9] = test system: methicillin-resistant S. aureus ATCC 33592; format: cell-based
Experimental: as §1, §2, §3

[10] = test system: methicillin-resistant S. epidermidis CAN-ICU 61589 (ceftazidime-resistant); format: cell-based; conditions: methicillin-resistant CAN-ICU 61589 (ceftazidime-resistant)
Experimental: as §1, §2, §3

[11] = test system: methicillin-susceptible Staphylococcus epidermidis CANWARD-2008 81388; format: cell-based; conditions: methicillin-susceptible CANWARD-2008 81388
Experimental: as §1, §2, §3

pig erythrocytes = format: cell-based
Experimental: Since PRAMPs are able to kill bacteria through membrane lysis, it is imperative to evaluate whether these synthesized SPRLPs also lyse eukaryotic membranes. The ability to lyse porcine red blood cells was assessed and the minimum concentration to result in 5% erythrocyte hemolysis (MHC) was reported (Tables 2 & 3). […] This greatly limits their therapeutic potential. […] However, all other SPRLPs were non-hemolytic (MHC>512 μg/mL).
The ability of SPRLPs to lyse eukaryotic red blood cells were quantified by the amount of hemoglobin released upon incubation with pig erythrocytes, following published protocols (37, 39). Fresh pig blood drawn from pig antecubital vein was centrifuged at 1000×g for 5 minutes at 4° C., washed with PBS three times and re-suspended in the same buffer, consecutively. Then, agents of interest were 2-fold serially diluted in PBS on 96-well plate and mixed with equal volumes of erythrocyte solution. Post 1-hour incubation at 37° C., intact cells were pelleted by centrifugation at 1000×g for 5 minutes at 4° C. The supernatant was then transferred to a new 96-well plate. The hemoglobin released was measured via EMax Plus microplate reader (Molecular Devices, USA) at 570 nm wavelength. Erythrocytes in PBS with or without 0.1% Triton X-100 was used as negative or positive control, respectively.

Gram-positive bacteria = assay: Microbroth dilution MIC, range over panel; format: cell-based; conditions: against Gram-positive bacteria of the panel
Experimental: as §1, §3

[12] = test system: P. aeruginosa PAO1 (wild-type); assay: microbe, parasite or virus in culture; conditions: Pseudomonas aeruginosa, PAO1, read-out: MIC (agent alone)
Experimental: (§4) We evaluated the activity of SPRLPs in combination with fifteen clinically-used antibiotics against P. aeruginosa. Antibiotics tested included fluoroquinolones (moxifloxacin, ciprofloxacin and levofloxacin), aminoglycosides (gentamicin, tobramycin and amikacin), cephalosporins (ceftazidime and cefotaxime), carbapenems (meropenem and doripenem), aztreonam, rifampicin, minocycline, colistin and fosfomycin. The SPRLPs were screened initially at a fixed concentration of 8 μg/mL (5 μM) in combination with antibiotics against wild-type P. aeruginosa PAO1. We assessed potentiation by at least a four-fold absolute MIC reduction of the antibiotic, after which synergism was further validated by a conventional checkerboard assay. A fractional inhibitory concentration (FIC) index of ≤0.5, 0.5<x≤4 or >4 was interpreted as synergistic, indifferent or antagonistic interaction, respectively (31). FIC index was obtained by adding the FIC values of the antibiotic and the SPRLP adjuvant. FIC of antibiotics was calculated by dividing the MIC of the antibiotic in the presence of the adjuvant by the MIC of the antibiotic alone. Similarly, the FIC of adjuvant was calculated via dividing the MIC of the adjuvant in the presence of the antibiotic by the MIC of the adjuvant alone.
as §3
(§5) The assay was performed on a 96-well plate, to which the agents of interest was 2-fold serially diluted in working MHB. Prior to serial dilution, SPRLP was added to the working MHB media so that a fixed final concentration of 8 μg/mL (5 μM) SPRLP per well was achieved. To ensure that the assay was working, the MIC determination test of the studied antibiotic (without SPRLP) was included on the same plate. Similar MIC results between the assay comparator and an independent MIC determination test (on a different plate) ensured validity of the synergy test. Overnight grown bacterial cultures were diluted in saline to 0.5 McFarland turbidity, followed by 1:50 dilution in MHB (without SPRLP) and inoculation into each well to a final concentration of approximately 5×10^5 colony forming units/mL. Wells containing only MHB (without SPRLP) with or without bacterial cells were used as positive or negative control, respectively. The plate was then incubated at 37° C. for 18 hours and examined for visible turbidity, to which was confirmed using EMax Plus microplate reader (Molecular Devices, USA) at a wavelength of 590 nm. A 4-fold or more MIC reduction of antibiotic in the presence of 8 μg/mL (5 μM) SPRLP denoted a positive synergy result and was further validated by a checkerboard assay.
The assay was done on a 96-well plate as previously described (40, 41). The agent of interest was 2-fold serially diluted along the x-axis, while the adjuvant was 2-fold serially diluted along the y-axis to create a matrix in which each well consist of a combination of both at different concentrations.

[13] = test system: P. aeruginosa 100036 (MDR/XDR); assay: microbe, parasite or virus in culture; conditions: Pseudomonas aeruginosa, read-out: MIC (agent alone)
Experimental: as §4, §2, §3
as §5, with “respectively.” for “respectively. The plate was then incubated at 37° C. for 18 hours and examined for visible turbidity, to which was confirmed using EMax Plus microplate reader (Molecular Devices, USA) at a wavelength of 590 nm. A 4-fold or more MIC reduction of antibiotic in the presence of 8 μg/mL (5 μM) SPRLP denoted a positive synergy result and was further validated by a checkerboard assay.”

[14] = test system: P. aeruginosa 101243 (colistin-resistant, MDR/XDR); assay: microbe, parasite or virus in culture; conditions: antibiotic or lipopeptide alone
Experimental: as §4, §2, §3
as §5, with “respectively.” for “respectively. The plate was then incubated at 37° C. for 18 hours and examined for visible turbidity, to which was confirmed using EMax Plus microplate reader (Molecular Devices, USA) at a wavelength of 590 nm. A 4-fold or more MIC reduction of antibiotic in the presence of 8 μg/mL (5 μM) SPRLP denoted a positive synergy result and was further validated by a checkerboard assay.”

[15] = test system: P. aeruginosa 101885 (MDR/XDR); assay: microbe, parasite or virus in culture; conditions: Pseudomonas aeruginosa, read-out: MIC (agent alone)
Experimental: as §4, §2, §3
as §5, with “respectively.” for “respectively. The plate was then incubated at 37° C. for 18 hours and examined for visible turbidity, to which was confirmed using EMax Plus microplate reader (Molecular Devices, USA) at a wavelength of 590 nm. A 4-fold or more MIC reduction of antibiotic in the presence of 8 μg/mL (5 μM) SPRLP denoted a positive synergy result and was further validated by a checkerboard assay.”

[16] = test system: P. aeruginosa 259-96918 (MDR/XDR); assay: microbe, parasite or virus in culture; conditions: Pseudomonas aeruginosa, read-out: MIC (agent alone)
Experimental: as §4, §2, §3
as §5, with “respectively.” for “respectively. The plate was then incubated at 37° C. for 18 hours and examined for visible turbidity, to which was confirmed using EMax Plus microplate reader (Molecular Devices, USA) at a wavelength of 590 nm. A 4-fold or more MIC reduction of antibiotic in the presence of 8 μg/mL (5 μM) SPRLP denoted a positive synergy result and was further validated by a checkerboard assay.”

[17] = test system: P. aeruginosa 260-97103 (MDR/XDR); assay: microbe, parasite or virus in culture; conditions: Pseudomonas aeruginosa, read-out: MIC (agent alone)
Experimental: as §4, §2, §3
as §5, with “respectively.” for “respectively. The plate was then incubated at 37° C. for 18 hours and examined for visible turbidity, to which was confirmed using EMax Plus microplate reader (Molecular Devices, USA) at a wavelength of 590 nm. A 4-fold or more MIC reduction of antibiotic in the presence of 8 μg/mL (5 μM) SPRLP denoted a positive synergy result and was further validated by a checkerboard assay.”

[18] = test system: P. aeruginosa 262-101856 (MDR/XDR); assay: microbe, parasite or virus in culture; conditions: Pseudomonas aeruginosa, read-out: MIC (agent alone)
Experimental: as §4, §2, §3
as §5, with “respectively.” for “respectively. The plate was then incubated at 37° C. for 18 hours and examined for visible turbidity, to which was confirmed using EMax Plus microplate reader (Molecular Devices, USA) at a wavelength of 590 nm. A 4-fold or more MIC reduction of antibiotic in the presence of 8 μg/mL (5 μM) SPRLP denoted a positive synergy result and was further validated by a checkerboard assay.”

[19] = test system: P. aeruginosa 264-104354 (MDR/XDR); assay: microbe, parasite or virus in culture; conditions: Pseudomonas aeruginosa, read-out: MIC (agent alone)
Experimental: as §4, §2, §3
as §5, with “respectively.” for “respectively. The plate was then incubated at 37° C. for 18 hours and examined for visible turbidity, to which was confirmed using EMax Plus microplate reader (Molecular Devices, USA) at a wavelength of 590 nm. A 4-fold or more MIC reduction of antibiotic in the presence of 8 μg/mL (5 μM) SPRLP denoted a positive synergy result and was further validated by a checkerboard assay.”

[20] = test system: P. aeruginosa 91433 (colistin-resistant, MDR/XDR); assay: microbe, parasite or virus in culture; conditions: Pseudomonas aeruginosa, read-out: MIC (agent alone)
Experimental: as §4, §2, §3
as §5, with “respectively.” for “respectively. The plate was then incubated at 37° C. for 18 hours and examined for visible turbidity, to which was confirmed using EMax Plus microplate reader (Molecular Devices, USA) at a wavelength of 590 nm. A 4-fold or more MIC reduction of antibiotic in the presence of 8 μg/mL (5 μM) SPRLP denoted a positive synergy result and was further validated by a checkerboard assay.”

CCCCCCCCCCCCCCCC(=O)N1CCC[C@H]1C(=O)N[C@@H](CCCNC(=N)N)C(=O)N1CCC[C@H]1C(=O)NCC(=O)N1CCC[C@H]1C(=O)N[C@@H](CCCNC(=N)N)C(=O)N1CCC[C@H]1C(N)=O [Compound C16-PGP, CH3(CH2)14CO-PRPGPRP-NH2] (Palmitoyl-PRPGPRP-NH2)
MIC [1]: 32 µg/mL | MIC (E. coli ATCC 25922): 32 µg/mL | MIC [2]: 32 µg/mL | MIC [3]: 32 µg/mL | MIC [4]: 32 µg/mL | MIC (E. faecalis ATCC 29212): 16 µg/mL | MIC (E. faecium ATCC 27270): 16 µg/mL | MIC (K. pneumoniae ATCC 13883): 64 µg/mL | MIC (P. aeruginosa ATCC 27853): 128 µg/mL | MIC [5]: 128 µg/mL | MIC [6]: 128 µg/mL | MIC [7]: 64 µg/mL | MIC (S. aureus ATCC 29213): 32 µg/mL | MIC [8]: 128 µg/mL | MIC [9]: 32 µg/mL | MIC [10]: 16 µg/mL | MIC [11]: 8 µg/mL | MHC (minimum concentration that resulted in 5% red blood cell hemolysis) (pig erythrocytes): 16 µg/mL | MIC range (Gram-positive bacteria): 8 to 32 µg/mL

CN(C)c1ccc(O)c2c1C[C@H]1C[C@H]3[C@H](N(C)C)C(O)=C(C(N)=O)C(=O)[C@@]3(O)C(O)=C1C2=O [minocycline]
MIC [12]: 8 µg/mL | MIC [13]: 16 µg/mL | MIC (agent alone) ([14]; P. aeruginosa 101243 (colistin-resistant)): 4 µg/mL | MIC ([14]; Pseudomonas aeruginosa, read-out: MIC (agent alone), P. aeruginosa 101243 (colistin-resistant)): 2 µg/mL | MIC [15]: 16 µg/mL | MIC [16]: 16 µg/mL | MIC [17]: 16 µg/mL | MIC [18]: 64 µg/mL | MIC [19]: 32 µg/mL | MIC [20]: 32 µg/mL
